Test results published in publication PMC12155096 (International Journal of Molecular Sciences, 2025).
Where two headings read alike, the source gives them in different places.

Assays:
[1] = target: human CYP2D6 (Homo sapiens, UniProt P10635)
[2] = target: human CYP2C9 (Homo sapiens, UniProt P11712)
[3] = target: T1, human CYP1A2 (Homo sapiens, UniProt P05177)
T1 sequence (P05177 1-516): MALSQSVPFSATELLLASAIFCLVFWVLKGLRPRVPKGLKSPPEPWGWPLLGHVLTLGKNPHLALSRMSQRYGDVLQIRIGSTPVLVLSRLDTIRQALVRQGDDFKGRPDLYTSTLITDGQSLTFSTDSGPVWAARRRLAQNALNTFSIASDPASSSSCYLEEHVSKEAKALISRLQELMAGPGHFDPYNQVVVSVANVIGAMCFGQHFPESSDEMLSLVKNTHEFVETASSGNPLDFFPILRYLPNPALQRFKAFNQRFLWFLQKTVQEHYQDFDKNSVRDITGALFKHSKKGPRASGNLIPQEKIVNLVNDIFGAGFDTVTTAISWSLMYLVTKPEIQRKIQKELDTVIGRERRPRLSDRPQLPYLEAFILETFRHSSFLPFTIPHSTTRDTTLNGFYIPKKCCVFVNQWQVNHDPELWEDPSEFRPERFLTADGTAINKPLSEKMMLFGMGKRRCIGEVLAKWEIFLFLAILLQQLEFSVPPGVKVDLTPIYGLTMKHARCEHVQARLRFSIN

[4] = target: human CYP2C19 (Homo sapiens, UniProt P33261)
[5] = target: Photinus pyralis (firefly) luciferase (Photinus pyralis, UniProt P08659); assay: biochemical; assay type: biochemical
[6] = target: CYP3A4 (Homo sapiens, UniProt P08684)
[7] = read-out: Luciferase IC50 (half-maximal inhibitory concentration)

Sequence of human CYP2D6 (P10635 whole entry): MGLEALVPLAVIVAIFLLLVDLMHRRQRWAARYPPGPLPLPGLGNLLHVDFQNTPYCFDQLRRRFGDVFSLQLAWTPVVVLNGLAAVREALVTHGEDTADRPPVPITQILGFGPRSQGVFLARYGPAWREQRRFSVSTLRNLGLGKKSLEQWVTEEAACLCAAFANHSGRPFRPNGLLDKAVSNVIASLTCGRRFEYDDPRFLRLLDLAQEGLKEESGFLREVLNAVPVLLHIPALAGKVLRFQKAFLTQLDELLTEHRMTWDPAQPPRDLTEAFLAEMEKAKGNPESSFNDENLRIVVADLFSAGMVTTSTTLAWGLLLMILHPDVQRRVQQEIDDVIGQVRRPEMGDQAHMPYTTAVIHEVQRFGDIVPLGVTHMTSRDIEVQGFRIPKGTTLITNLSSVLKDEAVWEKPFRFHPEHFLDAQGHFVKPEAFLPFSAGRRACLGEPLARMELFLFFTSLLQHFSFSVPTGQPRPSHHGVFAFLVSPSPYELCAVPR
Sequence of human CYP2C9 (P11712 whole entry): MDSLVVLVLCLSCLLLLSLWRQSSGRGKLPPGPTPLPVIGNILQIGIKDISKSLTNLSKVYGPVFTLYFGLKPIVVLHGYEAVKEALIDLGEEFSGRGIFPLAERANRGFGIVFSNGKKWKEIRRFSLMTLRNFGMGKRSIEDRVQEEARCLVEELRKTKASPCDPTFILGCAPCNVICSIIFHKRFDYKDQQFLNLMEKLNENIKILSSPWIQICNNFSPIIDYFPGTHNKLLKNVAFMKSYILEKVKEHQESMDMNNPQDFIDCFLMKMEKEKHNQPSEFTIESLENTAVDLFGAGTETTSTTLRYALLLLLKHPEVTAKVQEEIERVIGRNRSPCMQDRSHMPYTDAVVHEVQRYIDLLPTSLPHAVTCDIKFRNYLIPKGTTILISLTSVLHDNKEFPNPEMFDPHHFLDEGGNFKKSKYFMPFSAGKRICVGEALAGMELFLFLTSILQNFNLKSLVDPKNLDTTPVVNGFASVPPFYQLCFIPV
Sequence of human CYP2C19 (P33261 whole entry): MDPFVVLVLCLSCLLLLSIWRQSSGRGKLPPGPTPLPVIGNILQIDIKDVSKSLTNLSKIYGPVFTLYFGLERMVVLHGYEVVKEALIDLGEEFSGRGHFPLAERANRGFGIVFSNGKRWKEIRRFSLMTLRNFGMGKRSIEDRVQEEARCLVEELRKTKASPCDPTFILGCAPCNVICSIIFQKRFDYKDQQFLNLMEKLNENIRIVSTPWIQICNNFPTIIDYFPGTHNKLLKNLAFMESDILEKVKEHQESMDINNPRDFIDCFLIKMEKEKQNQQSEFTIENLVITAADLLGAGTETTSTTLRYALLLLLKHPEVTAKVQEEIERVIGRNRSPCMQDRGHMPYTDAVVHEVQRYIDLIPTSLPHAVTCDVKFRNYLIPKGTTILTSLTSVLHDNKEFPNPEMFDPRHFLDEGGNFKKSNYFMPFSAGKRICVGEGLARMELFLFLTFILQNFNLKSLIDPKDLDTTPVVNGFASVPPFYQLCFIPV
Sequence of Photinus pyralis (firefly) luciferase (P08659 whole entry): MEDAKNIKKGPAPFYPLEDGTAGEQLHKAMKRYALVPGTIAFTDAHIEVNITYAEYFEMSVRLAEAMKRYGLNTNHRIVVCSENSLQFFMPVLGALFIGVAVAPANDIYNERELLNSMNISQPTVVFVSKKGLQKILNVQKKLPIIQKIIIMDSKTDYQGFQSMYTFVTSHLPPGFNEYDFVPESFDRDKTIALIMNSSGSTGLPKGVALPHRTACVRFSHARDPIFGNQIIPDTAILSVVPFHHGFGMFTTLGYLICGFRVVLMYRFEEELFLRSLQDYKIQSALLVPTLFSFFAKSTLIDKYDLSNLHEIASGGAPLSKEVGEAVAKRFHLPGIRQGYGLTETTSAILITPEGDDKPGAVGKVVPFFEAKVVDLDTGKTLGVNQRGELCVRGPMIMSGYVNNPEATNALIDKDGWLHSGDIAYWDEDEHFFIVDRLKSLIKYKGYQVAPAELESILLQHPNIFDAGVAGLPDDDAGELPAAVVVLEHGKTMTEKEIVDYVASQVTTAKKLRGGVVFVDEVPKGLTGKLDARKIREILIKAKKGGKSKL
Sequence of CYP3A4 (P08684 whole entry): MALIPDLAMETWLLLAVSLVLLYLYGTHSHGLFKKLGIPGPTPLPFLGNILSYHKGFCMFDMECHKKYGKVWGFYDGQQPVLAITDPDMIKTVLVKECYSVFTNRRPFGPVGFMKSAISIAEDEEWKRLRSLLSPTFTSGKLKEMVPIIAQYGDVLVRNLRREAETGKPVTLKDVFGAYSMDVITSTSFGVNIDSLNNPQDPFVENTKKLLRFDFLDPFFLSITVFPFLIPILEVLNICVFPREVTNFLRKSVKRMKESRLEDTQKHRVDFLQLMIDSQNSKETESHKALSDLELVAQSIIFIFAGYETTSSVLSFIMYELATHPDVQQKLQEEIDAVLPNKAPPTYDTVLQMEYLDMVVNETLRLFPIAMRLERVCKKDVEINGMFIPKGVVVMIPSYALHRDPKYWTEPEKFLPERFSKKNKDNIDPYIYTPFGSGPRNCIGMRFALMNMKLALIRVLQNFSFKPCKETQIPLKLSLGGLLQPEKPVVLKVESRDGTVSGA

SMILES | IC50 [1] [nM] | IC50 [2] [µM] | IC50 [3] [µM] | IC50 [4] [µM] | Luciferase IC50 (half-maximal inhibitory concentration) [5] | IC50 [6] [nM] | CYP1A2 IC50 (half-maximal inhibitory concentration) [3] | further results
CC(=O)O.CC(C)c1ccc2c(c1)CC[C@H]1[C@](C)(CN)CCC[C@]21C [Dehydroabietylamine acetate] | 1510 | 42.2 | 38.6 | 15 | Inactive | 410 |  | CYP2D6 Efficacy (in parenthesis) [1]: 1.51 ± 0.43 (-90 ± 10) %; CYP2C9 Efficacy (in parenthesis) [2]: 42.19 ± 26.12 (-70 ± 20) %; CYP1A2 Efficacy (in parenthesis) [3]: 38.64 ± 5.32 (-53 ± 5) %; CYP2C19 Efficacy (in parenthesis) [4]: 14.98 ± 6.91 (-121 ± 11) %; CYP3A4 Efficacy (in parenthesis) [6]: 0.41 ± 0.13 (-82 ± 3) %
C[C@@H]1C[C@H]2[C@@H]3CCC4=CC(=O)C=C[C@]4(C)[C@@]3(F)[C@@H](O)C[C@]2(C)[C@@]1(O)C(=O)COC(=O)c1ccncc1 [Dexamethasone isonicotinate] | 9500 | 7.32 |  | 23.4 | Inactive | 810 | Inactive | 
COS(=O)(=O)[O-].Cn1c(-c2ccccc2)cc(-c2ccccc2)[n+]1C [Difenzoquat metilsulfate] | 440 |  |  |  |  |  |  | CYP2C9 IC50 [2]: Inactive; CYP1A2 IC50 [3]: Inactive; CYP2C19 IC50 [4]: Inactive; Luciferase IC50 [5]: Inactive; CYP3A4 IC50 [6]: Inactive
C=CC(=O)OCC(CO)(COCC(COC(=O)C=C)(COC(=O)C=C)COC(=O)C=C)COC(=O)C=C [Dipentaerythritol pentaacrylate] | 26700 | 7.3 |  | 8.87 | Inactive | 430 | Inactive | CYP2D6 Efficacy (in parenthesis) [1]: 26.69 ± 11.98 (-72 ± 6) %; CYP2C9 Efficacy (in parenthesis) [2]: 7.3 ± 0.49 (-101 ± 2) %; CYP2C19 Efficacy (in parenthesis) [4]: 8.87 ± 1.02 (-135 ± 9) %; CYP3A4 Efficacy (in parenthesis) [6]: 0.43 ± 0.03 (-94 ± 4) %
CCc1ccc(C(=O)C(C)CN2CCCCC2)cc1.Cl (stereo not shown) [Eperisone hydrochloride] | 510 |  | 29.2 | 4.72 | Inactive |  |  | CYP2C9 IC50 (half-maximal inhibitory concentration) [2]: Inactive; CYP3A4 IC50 (half-maximal inhibitory concentration) [6]: Inactive
CCOC(CN1CCN(CC(C)C(=O)c2ccccc2)CC1)c1ccccc1.Cl.Cl (stereo not shown) [Eprazinone dihydrochloride] | 200 | 11.5 |  |  | Inactive |  | Inactive | AC50 [1]: 200 nM; AC50 [2]: 11.5 µM; CYP2C19 IC50 (half-maximal inhibitory concentration) [4]: Inactive; AC50 [6]: 15.2 µM; CYP3A4 IC50 (half-maximal inhibitory concentration) [6]: 15.16 ± 1.74 (64 ± 2) µM
CCc1cc(Cl)c(OC)c(C(=O)NC[C@@H]2CCCN2CC)c1O.Cl [Eticlopride hydrochloride] |  |  | 13.5 |  | Inactive |  |  | CYP2D6 Efficacy [1]: 0.67 ± 0.09 (-96 ± 1) %; CYP2C9 IC50 (half-maximal inhibitory concentration) [2]: Inactive; CYP2C19 IC50 (half-maximal inhibitory concentration) [4]: Inactive; CYP3A4 IC50 (half-maximal inhibitory concentration) [6]: Inactive
Cc1[nH]cnc1C[C@H]1CCc2c(C)c3ccccc3n2C1=O.Cl [Fabesetron hydrochloride] |  |  | 1.56 | 1.67 | Inactive | 1890 |  | CYP2D6 Efficacy [1]: 3.52 ± 0.74 (-103 ± 4) %; CYP2C9 Efficacy [2]: 0.51 ± 0.09 (-90 ± 4) %
O=S(=O)(Oc1ccc(Cl)cc1)c1ccccc1 [Fenson] | 35700 | 34.3 | 5.64 | 0.78 |  |  |  | AC50 [1]: 35700 nM; CYP2D6 Efficacy [1]: 35.73 ± 4.11 (-62 ± 14) %; AC50 [2]: 34.3 µM; CYP2C9 Efficacy [2]: 34.28 ± 2.23 (-89 ± 7) %; CYP1A2 Efficacy [3]: 5.64 ± 0.00 (-100 ± 5) %; CYP1A2 Efficacy (in parenthesis) [3]: 5.64 ± 0 (-100 ± 5) %; CYP2C19 Efficacy [4]: 0.78 ± 0.29 (-135 ± 6) %; CYP2C19 Efficacy (in parenthesis) [4]: 0.78 ± 0.29 (-135 ± 6) %; Luciferase Efficacy (in parenthesis) [5]: 76.75 ± 5.00 (-30 ± 10) %; IC50 [5, 7]: 76.8 µM; AC50 [6]: 6.61 µM; CYP3A4 Efficacy (in parenthesis) [6]: 6.61 ± 0.84 (131 ± 4) %; CYP3A4 IC50 (half-maximal inhibitory concentration) [6]: 6.61 ± 0.84 (131 ± 4) µM
CCOC(=O)c1ccc(OC(=O)CCCCCN=C(N)N)cc1.CS(=O)(=O)O [Gabexate mesilate] |  |  | 20.1 | 10.3 | Inactive |  |  | AC50 [1]: 270 nM; CYP2D6 Efficacy [1]: 0.27 ± 0.04 (-102 ± 4) %; AC50 [2]: 10.3 µM; CYP2C9 Efficacy [2]: 10.33 ± 4.77 (82 ± 30) %; CYP1A2 Efficacy [3]: 20.14 ± 4.79 (-49 ± 20) %; CYP2C19 Efficacy [4]: 10.33 ± 4.77 (-82 ± 30) %; AC50 [6]: 21.2 µM; CYP3A4 IC50 (half-maximal inhibitory concentration) [6]: 21.25 ± 8.41 (37 ± 5) µM
CC[C@H]1C[C@@H]2C[C@H]3c4[nH]c5ccc(OC)cc5c4CCN(C2)[C@@H]13.Cl [Ibogaine hydrochloride] |  |  | 61.5 | 83.1 | Inactive | 32500 |  | CYP2D6 Efficacy [1]: 0.76 ± 0.1 (-105 ± 7) %; CYP2C9 Efficacy [2]: 44.07 ± 15.72 (-45 ± 10) %
CC(C)C[C@H]1[C@@H](c2ccccc2)OC(=O)N1CCCN1CCCCCC1.Cl [Ipenoxazone hydrochloride] |  |  |  | 2.3 |  | 880 |  | CYP2D6 Efficacy [1]: 0.44 ± 0.1 (-105 ± 4) %; CYP2C9 IC50 [2]: Inactive; CYP1A2 IC50 [3]: Inactive; Luciferase IC50 [5]: Inactive
Cc1oc(=O)oc1COC(=O)[C@@H]1N2C(=O)[C@@H](NC(=O)[C@H](N)c3ccccc3)[C@H]2SC1(C)C.Cl [Lenampicillin hydrochloride] |  | 41.3 |  |  | Inactive | 620 | Inactive | CYP2D6 IC50 (half-maximal inhibitory concentration) [1]: Inactive; CYP2C19 IC50 (half-maximal inhibitory concentration) [4]: Inactive
O=S(=O)([O-])C(F)(F)C(F)(F)C(F)(F)C(F)(F)C(F)(F)C(F)(F)C(F)(F)C(F)(F)F.[Li+] [Lithium perfluorooctane sulfonate] |  | 0.48 |  | 86.1 | Inactive |  | Inactive | CYP2D6 IC50 (half-maximal inhibitory concentration) [1]: Inactive; CYP3A4 IC50 (half-maximal inhibitory concentration) [6]: Inactive
CN1[C@@H]2CCC(C)(C)[C@H]1C[C@H](OC(=O)C(O)(c1cccs1)c1cccs1)C2 [Mazaticol] | 14400 |  |  |  | Inactive | 220 | Inactive | CYP2C9 IC50 (half-maximal inhibitory concentration) [2]: Inactive; CYP2C19 IC50 (half-maximal inhibitory concentration) [4]: Inactive
CCOC(=O)c1c(C)n(C)c2ccc(O)cc12 [Mecarbinate] | 18000 | 12.9 | 0.54 | 7.23 | Inactive | 5970 |  | 
[Cl][Hg][Cl] [Mercuric chloride] | 1610 | 0.47 | 5.66 | 0.77 |  | 2250 |  | IC50 ([5]; read-out: Luciferase IC50): 11 µM
CC(=O)[O-].CC(=O)[O-].[Hg+2] [Mercury(II) acetate] | 1080 | 0.5 | 4.19 | 0.91 |  | 2860 |  | CYP2D6 Efficacy (in parenthesis) [1]: 1.08 ± 0.07 (-72 ± 4) %; CYP2C9 Efficacy (in parenthesis) [2]: 0.5 ± 0.06 (-104 ± 2) %; CYP1A2 Efficacy (in parenthesis) [3]: 4.19 ± 0.75 (-100 ± 9) %; CYP2C19 Efficacy (in parenthesis) [4]: 0.91 ± 0.47 (-137 ± 5) %; Luciferase Efficacy (in parenthesis) [5]: 6.84 ± 0.45 (-85 ± 7) %; IC50 [5, 7]: 6.84 µM; CYP3A4 Efficacy (in parenthesis) [6]: 2.86 ± 0.53 (-93 ± 1) %
[I][Hg][I] [Mercury(II) iodide] | 1670 | 0.54 | 3.7 | 1.04 |  | 2530 |  | IC50 ([5]; read-out: Luciferase IC50): 5.25 µM
COc1cc(Cl)ccc1Oc1ccc(Cl)cc1Cl [Methyl triclosan] |  | 12 | 15.1 | 0.72 |  | 70200 |  | CYP2D6 IC50 [1]: Inactive; IC50 ([5]; read-out: Luciferase IC50): 48.9 µM
COC(=O)c1cncn1C(C)c1ccccc1.Cl (stereo not shown) [Metomidate hydrochloride] | 5650 | 34 |  | 4.05 | Inactive | 250 | Inactive | 
CCCN(CCC)CCc1c[nH]c2ccccc12.Cl [N,N-Dipropyltryptamine hydrochloride] | 310 |  | 20.8 | 65.9 |  |  |  | CYP2C9 IC50 [2]: Inactive; Luciferase IC50 [5]: Inactive; CYP3A4 IC50 [6]: Inactive
